Legend:
dogs = assay: Tolerance in dogs, 5 days; format: in vivo; settings: 50 to 200 mg/kg via the digestive tract, three dogs
non-anaesthetized dogs = assay: Diuretic activity in non-anaesthetized dogs after hydration; format: in vivo
Protocol: After hydration with 500 ml physiological water and calculation of the diuresis for 2 hours, CE 3624, CE 3649 and CE 3598 were administered per os at doses of from 10 to 100 mg/kg.
For CE 3624 at 20 mg/kg, the diuresis was quintupled for 3 hours; the same result was obtained at 10 mg/kg. For CE 3649, at the same doses, the diuresis was only doubled. The doses of CE 3598 administered per os were 25,50 and 100 mg/kg. The increase in diuresis was effective during the first hour, and still notable 3 hours after administration of the product.

mice = assay: Diuretic activity in mice; format: in vivo
Protocol: The three compounds CE 3598, CE 3624, CE 3649 can be shown to be diuretic at doses of from 1 - 50 mg/kg for the first.

[1] = Acute toxicity in mice (mortality after 24 h intravenous, 48 h per os); settings: mouse, in vivo; for LD50 at 24 h: intravenous, mortality after 24 hours; for LD50 at 48 h: po, per os, mortality after 48 hours
Protocol: The three compounds were administered in the usual way to lots of 10 male mice of average weight 20 gm. Mortality was assessed after 24 hours for the intravenous toxicity and after 48 hours for toxicity per os.

[2] = system: dogs anaesthetized with mebubarbital; assay: Diuretic activity in dogs anaesthetized with mebubarbital; format: in vivo
Protocol: The doses injected were of the order of 5 - 30 mg/kg. In most cases, diuresis was decupled for more than 2 hours.
The size of the increase may reach 6 to 7 times, even 10 times, the base diuresis.
In the case of intraduodenal injection or administration per os, the active doses are relatively the same as by intravenous administration.

[3] = per os, 10 to 100 mg/kg, after hydration with 500 ml physiological water

In the case of `O=C(O)COc1ccc(C(=O)c2ccco2)c(Cl)c1Cl` [CE 3598, 4-(2-furylketo) 2,3-dichloro phenoxyacetic acid], the “symptoms indicating injurious activity” value (dogs) is reported as “no symptoms which would indicate any injurious activity”, the increase in diuresis (non-anaesthetized dogs; [3]) is reported as “strongly increased” and the “increase in diuresis 3 hours after administration” value (non-anaesthetized dogs; per os, 25, 50 and 100 mg/kg) is reported as “still notable”. The “increase in diuresis during the first hour” value (non-anaesthetized dogs; per os, 25, 50 and 100 mg/kg) was “effective”, the diuretic activity (mice) was “diuretic” and the LD50 at 24 h [1] was 450 mg/kg. The LD50 at 48 h [1] was 1500 mg/kg, the “increase in diuresis 2 hours after injection” value ([2]; intravenous) was “still perceptible” and the “dose provoking substantial diuretic action” value ([2]; intravenous, first 15 minutes) was roughly 10 mg/kg. For the same compound, the “size of the increase over base diuresis, maximum” value ([2]; intravenous, may reach even) was 10 times and the “diuretic action in the first 15 minutes” value ([2]; intravenous, of the order of 10 mg/kg) was “substantial diuretic action”.

For `O=C(O)COc1ccc(C(=O)c2cccs2)c(Cl)c1Cl` [CE 3624, 4-(2-thienylketo) 2,3-dichloro phenoxyacetic acid], the “symptoms indicating injurious activity” value (dogs) was “no symptoms which would indicate any injurious activity”, the increase in diuresis (non-anaesthetized dogs; per os, 10 mg/kg) was “quintupled” and the “duration of quintupled diuresis” value (non-anaesthetized dogs; per os, 20 mg/kg) was 3 h. For the same compound, the increase in diuresis (non-anaesthetized dogs; per os, 20 mg/kg, for 3 hours) was “quintupled”, the increase in diuresis (non-anaesthetized dogs; [3]) was “strongly increased” and the diuretic activity (mice) was “diuretic”. The increase in diuresis (mice; 25 mg/kg) was “doubled”, the increase in diuresis (mice; 50 mg/kg) was “quintupled” and the LD50 at 24 h [1] was 225 mg/kg. The LD50 at 48 h [1] was 1280 mg/kg, the diuretic action ([2]; injected, of the order of 5 - 30 mg/kg) was “extremely substantial and precocious” and the “duration of decupled diuresis” value ([2]; injected, of the order of 5 - 30 mg/kg, in most cases) was “more than 2 hours”. For the same compound, the increase in diuresis ([2]; injected, of the order of 5 - 30 mg/kg, in most cases, for more than 2 hours) was “decupled”.

For `Cc1ccc(C(=O)c2ccc(OCC(=O)O)c(Cl)c2Cl)s1` [CE 3649, 4-[2(5-methylthienyl)keto] 2,3-dichloro phenoxyacetic acid], the “symptoms indicating injurious activity” value (dogs) was “no symptoms which would indicate any injurious activity”, the increase in diuresis (non-anaesthetized dogs; [3]) was “strongly increased” and the increase in diuresis (non-anaesthetized dogs; per os, same doses as CE 3624 (20 and 10 mg/kg)) was “only doubled”. The diuretic activity (mice) was “diuretic”, the “diuretic activity relative to CE 3624” value (mice) was “a quarter of that of CE 3624” and the LD50 at 24 h [1] was 580 mg/kg. It also gave an LD50 at 48 h [1] of 2900 mg/kg.
